Assay [1] has as its system Mycobacterium tuberculosis H37Rv growth inhibition, no glycerol. Put plainly: Mycobacterium tuberculosis h37rv growth inhibition in absence of glycerol, confirmatory dose response (AID 588437). Particulars: for IC50: measured here: IC50 growth inhibition replicates.
Assay in assay [2]: as above
The settings on record: Mycobacterium tuberculosis H37Rv growth inhibition, no glycerol.

The record followed here is PubChem BioAssay AID588437 (Southern Research Specialized Biocontainment Screening …, 2011).

Molecules are shown by their SMILES. Several values for one entry are separate records, joined by “and”; a condition that tells them apart may be missing. Identical values can stand only once. Records with an inconclusive call do not appear. Activity calls are given as the source filed them. How the calls were made is not given here.

For the compound `O=C(c1ccc(CNc2c(N3CCOCC3)c(=O)c2=O)cc1)N1CC=C(c2ccccc2)CC1`, in assay [1], the IC90 (in general, the point of the concentration-response curve where the effect stands at 90%) is 15.4 µM and the IC50 (in general, the concentration that inhibits the measured activity by half) worked out at 4.83 µM. On the same counts, the results for `CCOC(=O)CSc1ncnc2c1cnn2-c1ccc(C)cc1C` are 7.19 µM and 5 µM.

Consider `CC1CCN(C(=O)c2ccc(CNc3c(N4CCCC4)c(=O)c3=O)cc2)CC1`, for which the IC50 in assay [1] is 20.3 µM. Still for that read-out and setting: to `CC(=O)c1ccc(NC(=O)c2ccc(CNc3c(N4CCOCC4)c(=O)c3=O)cc2)cc1` belongs greater than 98.8 µM.

Take `CCOc1ccc(NC(=O)c2ccc(CNc3c(N4CCCC4)c(=O)c3=O)cc2)cc1`: the outcome in assay [2] was inactive.

For the compound `CC1CC(C)CN(C(=O)C2CCC(CNc3c(N4CCCCC4)c(=O)c3=O)CC2)C1` (centres undefined), in assay [1], the 50% inhibitory concentration (IC50) was 26.9 µM and 35.5 µM. Still for that read-out and setting: for `O=C(c1ccc(CNc2c(N3CCCC3)c(=O)c2=O)cc1)N1CC=C(c2ccccc2)CC1` the value was 12.5 µM and 8.13 µM. As for `Cc1cccc(N2CCN(C(=O)c3ccc(CNc4c(N5CCC(C)CC5)c(=O)c4=O)cc3)CC2C)c1` (centres undefined), in assay [1], the IC90 was 51.8 µM and the IC50 came out at 40.9 µM.

Consider `O=C(NCCc1ccc(Cl)cc1)c1ccc(CNc2c(N3CCOCC3)c(=O)c2=O)cc1`, for which the IC50 in assay [1] is 11 µM and 11.2 µM. For the compound `O=C(c1ccc(CNc2c(N3CCCC3)c(=O)c2=O)cc1)N1CCc2ccccc2C1`, the IC50 in assay [1] was 13.4 µM.

Take `O=C(C1CCC(CNc2c(N3CCCCC3)c(=O)c2=O)CC1)N1CCCCC1` (centres undefined): in assay [1], the IC50 turned out to be 59.6 µM.

Take `COc1ccc(N2CCN(C(=O)c3ccc(CNc4c(N5CCOCC5)c(=O)c4=O)cc3)CC2)cc1`: the IC50 in assay [1] is 21.7 µM and 18.5 µM. Consider `CCOC(=O)N1CCC(Nc2c(Nc3cccc(CC)c3)c(=O)c2=O)CC1`, for which, in assay [1], the IC90 is 85.3 µM and the IC50 is 65.1 µM. In assay [1], `CC1CC(C)CN(C(=O)c2ccc(CNc3c(N4CCCC4)c(=O)c3=O)cc2)C1` (centres undefined) came in with an IC50 of 22.8 µM. As to `COC(=O)CSc1ncnc2c1cnn2-c1ccc(C)cc1C`, in assay [1], the IC90 is 6.65 µM and the IC50 was 5.41 µM. `CC(C)OC(=O)CSc1ncnc2c1cnn2-c1ccccc1`: in assay [1], the IC50 was determined as 29.5 µM. For `CCOC(=O)CSc1ncnc2c1cnn2-c1ccccc1`, in assay [1], the IC90 is 47.7 µM and the IC50 was 30.2 µM. In the case of `Cc1cccc(N2CCN(C(=O)c3ccc(CNc4c(N5CCC(C)CC5)c(=O)c4=O)cc3)CC2)c1C`, in assay [2], the outcome was inactive. As for `O=C(NCCc1ccc(Cl)cc1)C1CCC(CNc2c(N3CCCCC3)c(=O)c2=O)CC1` (centres undefined), in assay [1], the IC50 turned out to be 22.4 µM. On the same count and under the same terms, to `CC1CCCN(C(=O)C2CCC(CNc3c(N4CCCCC4)c(=O)c3=O)CC2)C1` (centres undefined) belongs 64.3 µM.

For the compound `CCC(C)NC(=O)CSc1nc2ccccc2c(=O)[nH]1` (centres undefined), in assay [1], the IC90 was 4.01 µM and the half-maximal inhibitory concentration (IC50) is 2.98 µM.

`CC1CCCN(C(=O)c2ccc(CNc3c(N4CCCCC4)c(=O)c3=O)cc2)C1` (centres undefined) gave an IC50 in assay [1] of 14.1 µM.
